According to patent US20110294722A1, “ANTIMICROBIAL PEPTIDES” (priority 2008, published 2011):
Where two headings read alike, the source gives them in different places. No end group written: not given here.

Legend:
Format in all cases: cell-based
[1] = tested on: Clavibacter michiganensis; experiment: In-vitro inhibition assay (MIC and LC), Example 3; conditions: for MIC (>90% inhibition): 1-2 days at 25° C.; for LC (lethal concentration, 100% inhibition): at least 4 days of incubation
Method: (§1) In-vitro inhibition assays were performed in sterile flat-bottom 96-well plates (Greiner bio-one, Frickenhausen). Antimicrobial peptides were dissolved in 0.01% acetic acid containing 0.2% BSA (500 μg/ml), filter sterilized and stored at −20° C. For inhibition assays dilutions of peptides ranging from 5 to 200 μg/ml were prepared and 10 μl (antibacterial assay) or 20 (antifungal assay) of each concentration was loaded per well.
(§2) Bacteria colonies from overnight agar plate cultures were resuspended into 5 ml LB-medium or HPG-medium (OD600 nm=0.08-0.1) and diluted into LB-medium/HPG-medium (1:100). 90 μl of this suspension containing about 10^5-10^6 CFU/ml of tested bacteria were added to each well resulting in final peptide concentrations of 0, 0.5, 1, 2, 5, 10, and 20 μg/ml. […] The lowest concentration, in which there is no observable growth (>90% inhibition) is referred to as minimal inhibitory concentration (MIC). […] For each peptide concentration two identical inhibition assays were performed.

Xanthomonas vesicatoria = experiment: In-vitro inhibition assay (MIC and LC), Example 3; conditions: for MIC (>90% inhibition): 1-2 days at 25° C.; for LC (lethal concentration, 100% inhibition): at least 4 days of incubation
Method: as §1, §2

[2] = tested on: Pseudomonas syringae pv. syringae; conditions: Pseudomonas syringae pv. syringae; for MIC (>90% inhibition): 1-2 days at 25° C.; for LC (lethal concentration, 100% inhibition): at least 4 days of incubation
Method: as §1, §2

Pseudomonas corrugata = conditions: Pseudomonas corrugata; for MIC (>90% inhibition): 1-2 days at 25° C.; for LC (lethal concentration, 100% inhibition): at least 4 days of incubation
Method: as §1, §2

[3] = tested on: Pseudomonas syringae pv. tomato; conditions: for LC (lethal concentration, 100% inhibition): at least 4 days of incubation
Method: as §1, §2

[4] = tested on: Pectobacterium carotovorum; conditions: Pectobacterium carotovorum; for MIC (>90% inhibition): 1-2 days at 25° C.; for LC (lethal concentration, 100% inhibition): at least 4 days of incubation
Method: as §1, §2

[5] = Pseudomonas syringae pv. tomato, 1-2 days at 25° C.
[6] = Pseudomonas syringae pv. tomato

Substance	MIC (>90% inhibition) [1]	LC (lethal concentration, 100% inhibition) [1]	MIC (>90% inhibition) (Xanthomonas vesicatoria)	LC (lethal concentration, 100% inhibition) (Xanthomonas vesicatoria)	MIC (>90% inhibition) [2]	LC (lethal concentration, 100% inhibition) [2]	MIC (>90% inhibition) (Pseudomonas corrugata)	LC (lethal concentration, 100% inhibition) (Pseudomonas corrugata)	MIC (>90% inhibition) [3, 5]	LC (lethal concentration, 100% inhibition) [3, 6]	MIC (>90% inhibition) [4]	LC (lethal concentration, 100% inhibition) [4]	MIC (>90% inhibition) [3]
KKKKIIKRLI-NH2 [SP1-17]	>10/>10 μg/ml	>10/>10 μg/ml	>10/>10 μg/ml	>10/>10 μg/ml	< 0.1 µg/mL	> 10 µg/mL	5.0 µg/mL	> 10 µg/mL	1.0/1.0 μg/ml	1.0/1.0 μg/ml	>10/>10 μg/ml	>10/>10 μg/ml	–
KKKKKKIIKKII-NH2 [SP1-22]	>10/>10 μg/ml	>10/>10 μg/ml	>10/>10 μg/ml	>10/>10 μg/ml	2.5 µg/mL	10 µg/mL	>10/>10 μg/ml	>10/>10 μg/ml	1.0 µg/mL	5.0 µg/mL	>10/>10 μg/ml	>10/>10 μg/ml	–
KRKKLLKRLI-NH2 [SP1-16]	>10/>10 μg/ml	>10/>10 μg/ml	10/>10 μg/ml	10/>10 μg/ml	0.1 µg/mL	2.5 µg/mL	0.5 µg/mL	1.0 µg/mL	1.0/1.0 μg/ml	1.0/1.0 μg/ml	>10/>10 μg/ml	>10/>10 μg/ml	–
KRKKLLKRLL-NH2 [SP1-15]	5.0/5.0 μg/ml	5.0/5.0 μg/ml	5.0/5.0 μg/ml	5.0/5.0 μg/ml	0.1 µg/mL	1.0 µg/mL	<0.1/<0.1 μg/ml	<0.1/<0.1 μg/ml	1.0/1.0 μg/ml	1.0/1.0 μg/ml	>10/>10 μg/ml	>10/>10 μg/ml	–
RKKKAKIIKKII-NH2 [SP1-10]	>10/>10 μg/ml	>10/>10 μg/ml	>10/>10 μg/ml	>10/>10 μg/ml	1.0 µg/mL	5.0 µg/mL	10/10 μg/ml	10/10 μg/ml	>10/>10 μg/ml	>10/>10 μg/ml	>10/>10 μg/ml	>10/>10 μg/ml	–
RKKKFKFFKRFF-NH2 [SP1-13]	0.25 µg/mL	1.0 µg/mL	0.5 µg/mL	2.5 µg/mL	0.1 µg/mL	0.5 µg/mL	< 0.1 µg/mL	0.25 µg/mL	–	5.0 µg/mL	>10/>10 μg/ml	>10/>10 μg/ml	1.0 µg/mL
RKKKFKFFKRLF-NH2 [SP1-12]	0.5/0.5 μg/ml	0.5/0.5 μg/ml	0.5 µg/mL	2.5 µg/mL	0.1 µg/mL	0.5 µg/mL	0.25 µg/mL	0.5 µg/mL	>10/>10 μg/ml	>10/>10 μg/ml	>10/>10 μg/ml	>10/>10 μg/ml	–
RKKKFKIFKRLF-NH2 [SP1-14]	1.0 µg/mL	2.5 µg/mL	1.0 µg/mL	2.5 µg/mL	< 0.1 µg/mL	0.5 µg/mL	0.5 µg/mL	1.0 µg/mL	–	–	>10/>10 μg/ml	>10/>10 μg/ml	1.0 to 5.0 µg/mL
RKKKIKIIKKII-NH2 [SP1-9]	2.5 µg/mL	10 µg/mL	2.5/2.5 μg/ml	2.5/2.5 μg/ml	0.5 µg/mL	1.0 µg/mL	5.0/5.0 μg/ml	5.0/5.0 μg/ml	5.0 µg/mL	10 µg/mL	>10/>10 μg/ml	>10/>10 μg/ml	–
RKKKIKIIKRLI-NH2 [SP1-8]	5.0 µg/mL	> 10 µg/mL	2.5 µg/mL	5.0 µg/mL	0.25 µg/mL	0.5 µg/mL	2.5/2.5 μg/ml	2.5/2.5 μg/ml	–	10/10 μg/ml	>10/>10 μg/ml	>10/>10 μg/ml	10/10 μg/ml
RKKKKKIIKKLI-NH2 [SP1-21]	>10/>10 μg/ml	>10/>10 μg/ml	>10/>10 μg/ml	>10/>10 μg/ml	0.5 µg/mL	2.5 µg/mL	2.5 µg/mL	5.0 µg/mL	2.5 µg/mL	5.0 µg/mL	>10/>10 μg/ml	>10/>10 μg/ml	–
RKKKLKFFKRLF-NH2 [Sp1-11]	2.5 µg/mL	5.0 µg/mL	2.5 µg/mL	10 µg/mL	1.0 µg/mL	2.5 µg/mL	0.25 µg/mL	1.0 µg/mL	>10/>10 μg/ml	>10/>10 μg/ml	>10/>10 μg/ml	>10/>10 μg/ml	–
